{"source": "patent US20090143236A1", "about": "“Method of detecting cancer cell acquiring drug-resistance” (BML, INC., priority 2004, published 2009)", "system": "SKOV3 cells and SKOV3/VP cells", "assay": "Caspase activity (colorimetric CaspACE assay) of ovarian cancer cells treated with VP-16", "assay_type": "cell-based, Human", "conditions": "100 μg/ml VP-16, 24 hours; FIG. 4A", "procedure": "Caspase activity was measured using a calorimetric CaspACE assay system (Promega Co., Madison, Wis., U.S.A.) in accordance with the instructions included therewith. SKOV3 cells and SKOV3/VP cells were cultured for 24 hours in the presence of 100 μg/ml VP-16, or VP-16 and the caspase inhibitor Z-VAD-FMK, or in the presence of only a medium (control). The cells were dissolved in a lysis buffer, and the resultant was then subjected to centrifugation at 4° C. at 15,000×g for 20 minutes. The supernatant (containing 100 μg of protein) was incubated with a substrate (Ac-DEVD-pNA) used for the measurement of caspase activity at 37° C. for 4 hours. Thereafter, the absorbance at 405 nm was measured, so as to obtain the activity.\nThe influence of BCL2L2 gene expression on apoptosis induced by anticancer drugs was analyzed. Human ovarian cancer SKOV3 cells and etoposide-resistant ovarian cancer SKOV3/VP cells were cultured for 24 hours in the presence of 100 μg/ml VP-16, so as to measure apoptosis associated with activation of caspase-3. […] Thereafter, in order to analyze the role of the BCL2L2 gene, the cells were treated with the antisense oligonucleotide of BCL2L2, and the influence of VP-16 was analyzed under conditions wherein expression of the BCL2L2 gene was suppressed. […]", "data": [{"smiles": "COc1cc([C@@H]2c3cc4c(cc3[C@@H](O[C@@H]3O[C@@H]5CO[C@@H](C)O[C@H]5[C@H](O)[C@H]3O)[C@H]3COC(=O)[C@H]23)OCO4)cc(OC)c1O", "note": "[VP-16, etoposide]", "values": [{"measurement": "caspase activity in etoposide-resistant SKOV3/VP cells compared with parent line SKOV3", "value": "decreased to approximately one-half"}]}]}
